We go through three compounds from US20080312200A1, “Medicament Comprising A Hormone Combination” (Grunenthal GmbH, priority 2006, published 2008).

The target of one assay is T1, human androgen receptor (Homo sapiens, UniProt P10275, T878A).
T1 construct: The cytosolic fractions of LNCaP cells, which contain the human androgen receptor, are used; endogenous in cells; host or cells: LNCaP cells (cytosolic fraction)
T1 sequence (P10275 1-920 T878A): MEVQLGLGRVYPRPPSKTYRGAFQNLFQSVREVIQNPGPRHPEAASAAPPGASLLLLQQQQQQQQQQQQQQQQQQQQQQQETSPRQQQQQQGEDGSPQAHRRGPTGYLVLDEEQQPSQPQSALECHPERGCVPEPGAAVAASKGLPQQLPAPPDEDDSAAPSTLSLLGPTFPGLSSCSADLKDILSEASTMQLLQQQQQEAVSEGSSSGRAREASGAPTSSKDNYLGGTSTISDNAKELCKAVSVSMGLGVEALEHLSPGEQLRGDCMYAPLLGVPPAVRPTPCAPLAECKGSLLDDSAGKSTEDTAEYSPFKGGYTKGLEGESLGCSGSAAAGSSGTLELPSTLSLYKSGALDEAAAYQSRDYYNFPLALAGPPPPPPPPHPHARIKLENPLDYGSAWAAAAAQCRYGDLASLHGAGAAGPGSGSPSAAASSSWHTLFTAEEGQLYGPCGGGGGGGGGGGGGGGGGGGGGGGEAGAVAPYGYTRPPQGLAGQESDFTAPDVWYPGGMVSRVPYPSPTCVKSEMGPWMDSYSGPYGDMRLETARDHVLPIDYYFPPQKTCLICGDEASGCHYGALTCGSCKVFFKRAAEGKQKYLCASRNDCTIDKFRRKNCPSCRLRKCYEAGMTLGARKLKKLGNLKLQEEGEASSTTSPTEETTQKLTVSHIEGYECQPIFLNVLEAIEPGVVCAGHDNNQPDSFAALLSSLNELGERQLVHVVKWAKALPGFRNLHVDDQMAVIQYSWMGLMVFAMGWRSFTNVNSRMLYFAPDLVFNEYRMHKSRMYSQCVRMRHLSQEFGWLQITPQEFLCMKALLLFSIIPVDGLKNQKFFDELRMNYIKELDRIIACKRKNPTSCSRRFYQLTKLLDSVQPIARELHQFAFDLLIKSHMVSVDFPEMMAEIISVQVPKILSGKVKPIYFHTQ
Kind of assay: Affinity for the human androgen receptor ([3H]methyltrienolone displacement, LNCaP cytosol). In kind it is binding. As to the method:
The following determination of the affinity of 3-α-OH-CMA or 3-β-OH-CMA for the human androgen receptor is based on the experimental methods published by Zava et al. (Endocrinology, 1979, vol. 104, pp. 1007-1012). The corresponding disclosure is hereby introduced as a reference and is part of the disclosure of the present application.
The cytosolic fractions of LNCaP cells, which contain the human androgen receptor, are used. The reference substance used is 0.5 nM of [^3H]methyltrienolone; 1 μM of mibolerone is used for determining nonspecific binding. The incubation period of the substances ([^3H]methyltrienolone, 3-α-OH-CMA or 3-β-OH-CMA) on the receptor amounts in each case to 24 hours at a temperature of approx. 4° C. The stock solutions, the dilution series of 3-α-OH-CMA or 3-β-OH-CMA, the washing steps, the determination of radioactivity, and the methods for calculating the particular IC50 and Ki values match the experimental protocol described in point 2).

Another assay concerns GABAA receptors. Put plainly: Influence on the binding of [3H]muscimol to GABAA receptors (rat cerebral cortex membranes). The settings on record: 5 nM [3H]muscimol. The protocol:
The following determinations of the influence of allopregnanolone, 3-α-OH-CMA or 3-β-OH-CMA on the binding of muscimol to GABAA receptors (rat) are based on the experimental methods published by Snodgrass, S. R. (Nature, 1979, vol. 273, p. 392-394). The corresponding disclosure is hereby introduced as a reference and is part of the disclosure of the present application.
Membrane preparations are produced from rat cerebral cortex material. The reference substance used is 5 nM of [^3H] muscimol; 10 μM of muscimol are used for determining nonspecific binding. The incubation period of the substances ([^3H]muscimol, allopregnanolone) on the receptor amounts in each case to 10 minutes at a temperature of approx. 4° C. The stock solution (5×10^−2 M) of allopregnanolone is in each case prediluted 1:10 in 75% strength DMSO and then further diluted 1:5 in 25% strength DMSO. The final concentration of allopregnanolone in the test is in each case 1×10^−10 M, 1×10^−9 M, 1×10^−8 M, 1×10^−7 M, 1×10^−6 M and 1×10^−5 M. After the above-stated incubation period of the substances, the incubation batches are filtered using standard methods and washed and the radioactivity of the filters is determined with a scintillation counter. Such standard methods are known to a person skilled in the art. The experiments are in each case carried out on duplicate batches.
The influence of 3-α-OH-CMA or 3-β-OH-CMA on the binding of muscimol to GABAA receptors (rat) is determined in a manner similar to the above-described method. 3-α-OH-CMA or 3-β-OH-CMA is used instead of allopregnanolone.

For assay [1], the target named is T2, human progesterone receptor (Homo sapiens, UniProt P06401).
T2 construct: The cytosolic fractions of MCF-7 cells, which contain the human progesterone receptor, are used; endogenous in cells; host or cells: MCF-7 cells (cytosolic fraction)
T2 sequence (P06401 1-933): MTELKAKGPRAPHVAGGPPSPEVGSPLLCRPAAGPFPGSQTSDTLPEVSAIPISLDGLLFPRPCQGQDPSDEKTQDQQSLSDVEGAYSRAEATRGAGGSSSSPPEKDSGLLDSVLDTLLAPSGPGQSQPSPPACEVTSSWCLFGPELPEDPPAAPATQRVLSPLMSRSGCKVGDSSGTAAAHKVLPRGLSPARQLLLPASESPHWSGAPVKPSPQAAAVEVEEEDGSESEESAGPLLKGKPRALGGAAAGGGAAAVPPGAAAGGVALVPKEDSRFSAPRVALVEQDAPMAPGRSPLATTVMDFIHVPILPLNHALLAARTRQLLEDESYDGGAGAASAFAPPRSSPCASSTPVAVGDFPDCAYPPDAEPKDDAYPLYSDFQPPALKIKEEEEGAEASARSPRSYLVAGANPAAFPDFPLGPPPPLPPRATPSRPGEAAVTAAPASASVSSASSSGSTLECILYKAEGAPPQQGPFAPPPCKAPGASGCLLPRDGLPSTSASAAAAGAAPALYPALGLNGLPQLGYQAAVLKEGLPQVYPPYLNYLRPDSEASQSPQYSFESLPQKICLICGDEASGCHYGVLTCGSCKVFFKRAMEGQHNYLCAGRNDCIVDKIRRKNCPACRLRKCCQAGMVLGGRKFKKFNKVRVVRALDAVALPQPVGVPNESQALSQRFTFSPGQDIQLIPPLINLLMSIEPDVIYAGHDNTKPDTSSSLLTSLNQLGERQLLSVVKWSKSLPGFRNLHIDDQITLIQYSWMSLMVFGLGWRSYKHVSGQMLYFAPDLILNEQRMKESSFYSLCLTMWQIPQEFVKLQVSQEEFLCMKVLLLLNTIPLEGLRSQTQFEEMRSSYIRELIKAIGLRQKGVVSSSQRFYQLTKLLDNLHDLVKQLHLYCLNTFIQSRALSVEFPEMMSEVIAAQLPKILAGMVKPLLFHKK
Kind of assay: Affinity for the human progesterone receptor ([3H]R 5020 displacement, MCF-7 cytosol). In kind it is binding. The settings on record: for IC50: 2 nM [3H]R 5020, MCF-7 cytosol, 20 hours, approx. 4° C.; for Ki: Cheng-Prusoff from IC50. The protocol: The following determination of the affinity of 3-α-OH-CMA or 3-β-OH-CMA for the human progesterone receptor is based on the experimental methods published by Eckert et al. (Cancer Research, 1982, vol. 42, pp. 139-144). The corresponding disclosure is hereby introduced as a reference and is part of the disclosure of the present application.
The cytosolic fractions of MCF-7 cells, which contain the human progesterone receptor, are used. The reference substance used is 2 nM of [^3H] R 5020; 1 μM of R 5020 is used for determining nonspecific binding. The incubation period of the substances ([^3H] R 5020, 3-α-OH-CMA or 3-β-OH-CMA) on the receptor amounts in each case to 20 hours at a temperature of approx. 4° C. Stock solutions (5×10^−2 M) of 3-α-OH-CMA or 3-β-OH-CMA are in each case prediluted 1:10 in 75% strength DMSO and then further diluted 1:5 in 25% strength DMSO. The final concentrations of 3-α-OH-CMA or 3-β-OH-CMA in the test are 3×10^−10 M, 3×10^−9 M, 1×10^−8 M, 3×10^−8 M, 1×10^−7 M, 3×10^−7 M, 1×10^−6 M and 1×10^−5 M. After the above-stated incubation period of the substances, the incubation batches are filtered using standard methods and washed and the radioactivity of the filters is determined with a scintillation counter. Such standard methods are known to a person skilled in the art. The experiments are in each case carried out on duplicate batches.
The corresponding IC50 values are calculated by nonlinear regression analysis of the displacement curves using the Hill curve fitting formula. A person skilled in the art is aware of such a calculation procedure.
The corresponding Ki values (inhibition constants) are determined using the Cheng-Prusoff equation (Ki=IC50/(1+(L/KD)), where L denotes the concentration of the radioligand in the test and KD the affinity of the radioligand for the receptor).

Usually IC50 stands for the concentration that gives 50% inhibition. Low readings indicate higher potency, high ones lower potency. As a reminder, the Ki is the equilibrium dissociation constant of an inhibitor or competing ligand from its target. The low end stands for a stronger hold on the target, the high end for a looser hold on the target. On human androgen receptor, `CC(=O)O[C@]1(C(C)=O)CC[C@H]2[C@@H]3C=C(Cl)C4=C[C@H](O)CC[C@]4(C)[C@H]3CC[C@@]21C` [3-α-OH-CMA, 3α-hydroxy-6-chloro-17α-acetoxy-4,6-pregnadien-20-one] registered an IC50 of 100 nM and a Ki of 83 nM. In addition, the “increase of binding of radioactively labelled muscimol” value (“increase” for short) in the assay on GABAA receptors (0.001 μM test substance) is recorded as 12%. Further, in assay [1], the IC50 stood at 39 nM and the Ki was 13 nM.

For `CC(=O)[C@H]1CC[C@H]2[C@@H]3CC[C@H]4C[C@H](O)CC[C@]4(C)[C@H]3CC[C@]12C` [allopregnanolone, reference compound], the “increase” value in the assay on GABAA receptors (1 μM test substance, 10 min, approx. 4° C.) was 38%.

On human androgen receptor, `CC(=O)O[C@]1(C(C)=O)CC[C@H]2[C@@H]3C=C(Cl)C4=C[C@@H](O)CC[C@]4(C)[C@H]3CC[C@@]21C` [3-β-OH-CMA, 3β-hydroxy-6-chloro-17α-acetoxy-4,6-pregnadien-20-one] came in with an IC50 of 25 nM and a Ki of 20 nM. The “increase” value with GABAA receptors (0.1 μM test substance) came to 31%. In assay [1], this compound registered an IC50 of 18 nM and a Ki of 6 nM.
